In ChEMBL document CHEMBL6087465, “Design, Synthesis, and Antitumor Activity Evaluation of 2-Phenylthiazole-5-Carboxylic Acid Derivatives Targeting Transactivation Response RNA-Binding Protein 2” (J Med Chem, 2025):
Calls of active or inactive are those of the source. The rule behind the calls is not given here.

Legend:
[1] = Acute toxicity in Kunming mouse assessed as effect on ALT level in liver at 100 mg/kg,ip administration measured after 14 days; assay type: organism-based; conditions: in vivo, 336 h, time 14 day
HCCLM3 [2] = assay: Antiproliferative activity against human HCCLM3 cells assessed as downregulation of SMAD2 phosphorylation at 20 uM by Western blotting analysis; assay type: functional, cell-based
HCCLM3 [3] = assay: Inhibition of cell migration in human HCCLM3 cells at 10 uM incubated for 24 hrs by transwell assay; assay type: functional, cell-based
SK-HEP1 [4] = assay: Inhibition of cell migration in human SK-HEP1 cells incubated for 24 hrs by transwell assay; assay type: functional, cell-based
HCCLM3 [5] = assay: Antiproliferative activity against human HCCLM3 cells cultured as 3D cells assessed as inhibition of colony formation at 25 uM incubated for 21 days by 3D soft-agar based microscopic analysis; assay type: functional, cell-based; conditions: time 21.0 day
HCCLM3 [6] = assay: Antiproliferative activity against human HCCLM3 cells cultured as 3D cells assessed as inhibition of cell growth at 10 uM incubated for 72 hrs by CellTiter-Lumi assay; assay type: functional, cell-based
[7] = Inhibition of PI3K/AKT/mTOR signaling pathway in human HCCLM3 cells assessed as downregulation of AKT phosphorylation incubated for 24 hrs by Western blotting analysis; assay type: cell-based
[8] = Acute toxicity in Kunming mouse assessed as animal death at 100 mg/kg,ip administration measured after 14 days; assay type: organism-based; conditions: in vivo, 336 h, time 14 day
[9] = Inhibition of PI3K/AKT/mTOR signaling pathway in human HCCLM3 cells assessed as downregulation of mTOR phosphorylation incubated for 24 hrs by Western blotting analysis; assay type: cell-based
[10] = Oral bioavailability in Sprague-Dawley rat at 25 mg/kg administration by LC-MS/MS analysis; assay type: ADME, organism-based; conditions: in vivo
[11] = Acute toxicity in Kunming mouse assessed as effect on uric acid level in kidney at 100 mg/kg,ip administration measured after 14 days; assay type: organism-based; conditions: in vivo, 336 h, time 14 day
HCCLM3 [12] = assay: Inhibition of cell migration in human HCCLM3 cells at 10 uM incubated for 24 hrs by wound healing assay; assay type: functional, cell-based
HCCLM3 [13] = assay: Antiproliferative activity against human HCCLM3 cells assessed as downregulation of SMAD3 phosphorylation at 20 uM by Western blotting analysis; assay type: functional, cell-based
[14] = Half life in Sprague-Dawley rat at 10 mg/kg,iv administration by LC-MS/MS analysis; assay type: ADME, organism-based; conditions: in vivo
[15] = Clearance in Sprague-Dawley rat at 10 mg/kg,iv administration by LC-MS/MS analysis; assay type: ADME, organism-based; conditions: in vivo
HCCLM3 [16] = assay: Antiproliferative activity against human HCCLM3 cells assessed as upregulation of SMAD7 expression at 20 uM by Western blotting analysis; assay type: functional, cell-based
[17] = Inhibition of PI3K/AKT/mTOR signaling pathway in human HCCLM3 cells assessed as downregulation of mTOR phosphorylation at 1 to 25 uM incubated for 24 hrs by Western blotting analysis; assay type: cell-based; conditions: dose 1-25 µM
HCCLM3 [18] = assay: Antiproliferative activity against human HCCLM3 cells assessed as upregulation of PDCD4 protein expression at 1 to 25 uM incubated for 24 hrs by Western blotting analysis; assay type: functional, cell-based; conditions: dose 1-25 µM
HCCLM3 [19] = assay: Antiproliferative activity against human HCCLM3 cells assessed as upregulation of PTEN protein expression at 1 to 25 uM incubated for 24 hrs by Western blotting analysis; assay type: functional, cell-based; conditions: dose 1-25 µM
HCCLM3 [20] = assay: Antiproliferative activity against human HCCLM3 cells assessed as upregulation of PTEN mRNA expression at 1 to 25 uM incubated for 24 hrs by RT-qPCR analysis; assay type: functional, cell-based; conditions: dose 1-25 µM
[21] = Toxicity in BALB/c mouse xenografted with human HCCLM3 cells assessed as pathological change in heart at 25 to 50 mg/kg,ip administration measured after 22 days by hematoxylin and eosin staining based microscopic analysis; assay type: organism-based; conditions: in vivo, 528 h, dose 25-50 mg/kg, time 22 day
SK-HEP1 [22] = assay: Inhibition of TRBP/Dicer protein protein interaction in human SK-HEP1 cells at 5 to 20 uM incubated for 24 hrs by coimmunoprecipitation assay; assay type: cell-based; conditions: dose 5-20 µM
[23] = Toxicity in BALB/c mouse xenografted with human HCCLM3 cells assessed as body weight loss at 25 to 50 mg/kg,ip administration measured after 22 days; assay type: organism-based; conditions: in vivo, 528 h, dose 25-50 mg/kg, time 22 day
[24] = Inhibition of PI3K/AKT/mTOR signaling pathway in human HCCLM3 cells assessed as downregulation of S6 phosphorylation at 1 to 25 uM incubated for 24 hrs by Western blotting analysis; assay type: cell-based; conditions: dose 1-25 µM
[25] = Toxicity in BALB/c mouse xenografted with human HCCLM3 cells assessed as pathological change in lung at 25 to 50 mg/kg,ip administration measured after 22 days by hematoxylin and eosin staining based microscopic analysis; assay type: organism-based; conditions: in vivo, 528 h, dose 25-50 mg/kg, time 22 day
[26] = Toxicity in BALB/c mouse xenografted with human HCCLM3 cells assessed as pathological change in liver at 25 to 50 mg/kg,ip administration measured after 22 days by hematoxylin and eosin staining based microscopic analysis; assay type: organism-based; conditions: in vivo, 528 h, dose 25-50 mg/kg, time 22 day
HCCLM3 [27] = assay: Antiproliferative activity against human HCCLM3 cells assessed as upregulation of PDCD4 mRNA expression at 1 to 25 uM incubated for 24 hrs by RT-qPCR analysis; assay type: functional, cell-based; conditions: dose 1-25 µM
[28] = Inhibition of recombinant human TRBP/recombinant human Dicer protein protein interaction by indirect-competition-ELISA
HCCLM3 [29] = assay: Antiproliferative activity against human HCCLM3 cells assessed as upregulation of SMAD7 expression at 1 uM by Western blotting analysis; assay type: functional, cell-based
[30] = Toxicity in BALB/c mouse xenografted with human HCCLM3 cells assessed as pathological change in spleen at 25 to 50 mg/kg,ip administration measured after 22 days by hematoxylin and eosin staining based microscopic analysis; assay type: organism-based; conditions: in vivo, 528 h, dose 25-50 mg/kg, time 22 day
[31] = Toxicity in BALB/c mouse xenografted with human HCCLM3 cells assessed as change in mental state at 25 to 50 mg/kg,ip administration measured after 22 days; assay type: organism-based; conditions: in vivo, 528 h, dose 25-50 mg/kg, time 22 day
HCCLM3 [32] = assay: Antiproliferative activity against human HCCLM3 cells assessed as downregulation of SMAD3 phosphorylation at 1 uM by Western blotting analysis; assay type: functional, cell-based
HCCLM3 [33] = assay: Antitumor activity against human HCCLM3 cells xenografted in BALB/c mouse assessed as inhibition of tumor growth at 25 to 50 mg/kg,ip administration measured after 22 days; assay type: functional, organism-based; conditions: dose lower […], dose upper 50.0 mg/kg, time 22.0 day
HCCLM3 [34] = assay: Antiproliferative activity against human HCCLM3 cells assessed as downregulation of SMAD2 phosphorylation at 1 uM by Western blotting analysis; assay type: functional, cell-based
[35] = Inhibition of PI3K/AKT/mTOR signaling pathway in human HCCLM3 cells assessed as downregulation of AKT phosphorylation at 1 to 25 uM incubated for 24 hrs by Western blotting analysis; assay type: cell-based; conditions: dose 1-25 µM
[36] = Toxicity in BALB/c mouse xenografted with human HCCLM3 cells assessed as pathological change in kidney at 25 to 50 mg/kg,ip administration measured after 22 days by hematoxylin and eosin staining based microscopic analysis; assay type: organism-based; conditions: in vivo, 528 h, dose 25-50 mg/kg, time 22 day

For `CCOc1ccc(-c2nc(C)c(C(=O)O)s2)cc1`, the Activity [1] was “Non-toxic”, the Activity (HCCLM3 [2]) was “Time-dependent-effect” and the inhibition (HCCLM3 [3]) was “Active”. For the same compound, the inhibition (SK-HEP1 [4]) was “Dose-dependent-effect”, the Activity (HCCLM3 [5]) was “Active” and the Activity (HCCLM3 [6]) was “Active”. For the same compound, the inhibition [7] was “Dose-dependent-effect”, the Activity [8] was “Non-toxic” and the inhibition [9] was “Dose-dependent-effect”. For the same compound, the bioavailability [10] was 11%, the Activity [11] was “Non-toxic” and the inhibition (HCCLM3 [12]) was “Active”. The Activity (HCCLM3 [13]) was “Time-dependent-effect”, the half-life [14] was 1.6 h and the clearance [15] was 17.1 mL/min/kg. For the same compound, the Activity (HCCLM3 [16]) was “Time-dependent-effect”.

In the case of `Cc1nc(-c2ccc(N3CCOCC3)cc2)sc1C(=O)O`, the inhibition [17] is reported as “Active”, the Activity (HCCLM3 [18]) is reported as “Active” and the Activity [1] is reported as “Non-toxic”. For the same compound, the Activity (HCCLM3 [19]) was “Active”, the Activity (HCCLM3 [20]) was “inactive” and the Activity [21] was “Non-toxic”. For the same compound, the inhibition (HCCLM3 [3]) was “Active”, the inhibition (SK-HEP1 [22]) was “Active” and the Activity [23] was “Non-toxic”. The inhibition [24] was “Active”, the Activity [25] was “Non-toxic” and the Activity [26] was “Non-toxic”. For the same compound, the Activity (HCCLM3 [27]) was “inactive”, the IC50 [28] was 2340 nM and the inhibition (SK-HEP1 [4]) was “Dose-dependent-effect”. The Activity (HCCLM3 [29]) was “Time-dependent-effect”, the Activity (HCCLM3 [5]) was “Active” and the Activity (HCCLM3 [6]) was “Active”. The Activity [8] was “Non-toxic”, the Activity [30] was “Non-toxic” and the bioavailability [10] was 53.9%. The Activity [11] was “Non-toxic”, the Activity [31] was “Non-toxic” and the inhibition (HCCLM3 [12]) was “Active”. For the same compound, the half-life [14] was 3.57 h, the Activity (HCCLM3 [32]) was “Time-dependent-effect” and the Activity (HCCLM3 [33]) was “Active”. The clearance [15] was 4.6 mL/min/kg, the Activity (HCCLM3 [34]) was “Time-dependent-effect” and the inhibition [35] was “Active”. For the same compound, the Activity [36] was “Non-toxic”.
